# Patent publication US7452865B2, “Antagonistic analogs of GH RH (2003)” (The Administrare's of the Tulane Educational Fund, priority 2004, dated 2008)
# Several values for one entry are separate records, joined by “and”; a condition that tells them apart may be missing. Identical values can stand only once.
# Tested on: hGH-RH(1-29)NH2 induced GH release
# Experiment: Inhibition of GH release in superfused rat pituitary system
# Type: cell-based
# Protocol: The analogs were tested in vitro in a test described earlier (S. Vigh and A. V Schally, Peptides 5:241-[…], 1984) with modification (Z. Rekasi and A. V. Schally, P.N.A.S. 90:2146-2149, 1993).
# Briefly, the cells are preincubated with peptides for 9 minutes (3 mL) at various concentrations. Immediately after the incubation, 1 nM hGH-RH(1-29)NH2 is administered for 3 minutes (1 mL) 10 minute response). To check the duration of the antagonistic effect of the analogue, 1 nM hGH-RH(1-29)NH2 is applied 30, 60, 90, and 120 minutes later for 3 minutes [30, 60, 90, 120 min responses]. Net integral values of the GH responses are evaluated. GH responses are compared to and expressed as percent of the original GH response induced by 1 nM GH-RH(1-29)NH2 The effect of the new antagonists are compared to that of [Ac-Tyr^1, D-Arg^2]hGH-RH(1-29)NH2, the “Standard antagonist”.
# Rat GH levels in aliquots of undiluted and diluted superfusion samples were measured by double-antibody radioimmunoassay using materials supplied by the National Hormone and Pituitary Program, Baltimore, Md. The results of RIA were analyzed with a computer program developed in our institute (V. Csernus and A. V. Schally, in Neuroendocrine Research Methods, Harwood Academic (Greenstein, B. D. ed., London, pp. 71-109, 1991), hereby incorporated by reference.
# [1] = antagonist 30 nM, 1 nM hGH-RH(1-29)NH2 at 0 min
# [2] = antagonist 30 nM, 1 nM hGH-RH(1-29)NH2 at 30 min
# [3] = antagonist 30 nM, 1 nM hGH-RH(1-29)NH2 at 60 min
# [4] = antagonist 30 nM, 1 nM hGH-RH(1-29)NH2 at 90 min
# [5] = antagonist 30 nM, 1 nM hGH-RH(1-29)NH2 at 120 min
Substance,GH response (% of control) 0 min [1],GH response (% of control) 30 min [2],GH response (% of control) 60 min [3],GH response (% of control) 90 min [4],GH response (% of control) 120 min [5],"GH response (% of control) 0 min (antagonist 10 nM, 0 min)","GH response (% of control) 30 min (antagonist 10 nM, 30 min)","GH response (% of control) 60 min (antagonist 10 nM, 60 min)","GH response (% of control) 90 min (antagonist 10 nM, 90 min)","GH response (% of control) 120 min (antagonist 10 nM, 120 min)","endocrine antagonistic potency: inhibition of the GH release stimulated by hGH-RH(1-29)NH2 (in words) (general statement, in vitro and in vivo)"
"[CH3(CH2)4CO-Tyr^1, D-Arg^2, Phe(pCl)^6, Arg^9, Abu^15, Nle^27, D-Arg^28, Har^29]hGH-RH(1-29)NH2 [Peptide 2]",18 % of control,13 % of control,18 % of control,25 % of control,51 % of control,–,–,–,–,–,–
"[PhAc-Tyr^1, D-Arg^2, Phe(pCl)^6, Cit^9, Abu^15, Nle^27, Har^28, D-Arg^29]hGH-RH(1-29)NH2 [Peptide 28]",68 % of control,7 % of control,8 % of control,20 % of control,34 % of control,–,–,–,–,–,–
"[PhAc-Arg^0, D-Arg^2, Phe(pCl)^6, Arg^9, Abu^15, Nle^27, D-Arg^28, Har^29]hGH-RH(1-29)NH2 [Peptide 18]",21 % of control,71 % of control,61 % of control,75 % of control,63 % of control,–,–,–,–,–,–
"[PhAc-Tyr^1, D-Arg^2, Phe(pCl)^6, Arg^9, His^10, Abu^15, Nle^27, D-Arg^28, Har^29]hGH-RH(1-29)NH2 [Peptide 32]",28 % of control,43 % of control,69 % of control,76 % of control,–,–,–,–,–,–,–
"[PhAc-Tyr^1, D-Arg^2, Phe(pCl)^6, Abu^8, Arg^9, Abu^15, Nle^27, D-Arg^28, Har^29]hGH-RH(1-29)NH2 [Peptide 27]",19 % of control,15 % of control,23 % of control,23 % of control,61 % of control,–,–,–,–,–,–
"[CH3(CH2)14CO-Tyr^1, D-Arg^2, Phe(pCl)^6, Arg^9, Abu^15, Nle^27, D-Arg^28, Har^29]hGH-RH(1-29)NH2 [Peptide 12]",35 % of control,30 % of control,35 % of control,51 % of control,43 % of control,–,–,–,–,–,–
"[Hca-Tyr^1, D-Arg^2, Phe(pCl)^6, Har^9, Tyr(Me)^10, Abu^15, Nle^27, D-Arg^28, Agm^29]hGH-RH(1-29) [Peptide 51]",64 % of control and 52 % of control and 87 % of control,36 % of control and 43 % of control and 35 % of control,31 % of control and 57 % of control and 46 % of control,56 % of control and 51 % of control,58 % of control and 61 % of control,–,–,–,–,–,–
"[PhAc-Tyr^1, D-Arg^2, Phe(pCl)^6, Arg^9, Amp^10, Abu^15, Nle^27, D-Arg^28, Har^29]hGH-RH(1-29)NH2 [Peptide 30]",18 % of control,11 % of control,7 % of control,7 % of control,8 % of control,60 % of control,24 % of control,34 % of control,32 % of control,53 % of control,high endocrine antagonistic potencies
"[Hca-Tyr^1, D-Arg^2, Phe(pCl)^6, Har^9, Tyr(Me)^10, Abu^15, Nle^27, D-Arg^28, Har^29]hGH-RH(1-29)NH2 [Peptide 45]",91 % of control and 100 % of control,100 % of control,100 % of control,100 % of control,99 % of control,–,–,–,–,–,–
"[HOOC(CH2)14CO-Tyr^1, D-Arg^2, Phe(pCl)^6, Arg^9, Abu^15, Nle^27, D-Arg^28, Har^29]hGH-RH(1-29)NH2 [Peptide 13]",87 % of control,77 % of control,76 % of control,71 % of control,73 % of control,–,–,–,–,–,–
"[PhAc-Tyr^1, D-Arg^2, Phe(pCl)^6, Har^9, Tyr(Me)^10, Abu^15, Nle^27, D-Arg^28, Agm^29]hGH-RH(1-29) [Peptide 52]",86 % of control,13 % of control,45 % of control,26 % of control,55 % of control,–,–,–,–,–,–
"[HOOC(CH2)10CO-Tyr^1, D-Arg^2, Phe(pCl)^6, Arg^9, Abu^15, Nle^27, D-Arg^28, Har^29]hGH-RH(1-29)NH2 [Peptide 9]",47 % of control,43 % of control,66 % of control,63 % of control,58 % of control,–,–,–,–,–,–
"[CH3(CH2)14COD-Phe^0, D-Arg^2, Phe(pCl)^6, Arg^9, Abu^15, Nle^27, D-Arg^28, Har^29]hGH-RH(1-29)NH2 [Peptide 17]",29 % of control,51 % of control,68 % of control,73 % of control,61 % of control,–,–,–,–,–,–
"[PhAc-Tyr^1, D-Arg^2, Phe(pCl)^6, Cit^8, Arg^9, Abu^15, Nle^27, Har^28, D-Arg^29]hGH-RH(1-29)NH2 [Peptide 23]",55 % of control,40 % of control,41 % of control,47 % of control,41 % of control,–,–,–,–,–,–
"[CH3(CH2)10CO-Tyr^1, D-Arg^2, Phe(pCl)^6, Arg^9, Abu^15, Nle^27, D-Arg^28, Har^29]hGH-RH(1-29)NH2 [Peptide 8]",37 % of control,31 % of control,48 % of control,44 % of control,40 % of control,–,–,–,–,–,–
"[PhAc-Tyr^1, D-Arg^2, Phe(pCl)^5, Har^9, Tyr(Me)^10, Cit^11, Abu^15, Nle^27, D-Arg^28, Har^29]hGH-RH(1-29)NH2 [Peptide 65]",67 % of control,80 % of control,89 % of control,97 % of control,79 % of control,–,–,–,–,–,–
"[PhAc-Tyr^1, D-Arg^2, Phe(pCl)^6, Cit^8, Cit^9, Abu^15, Nle^27, Har^28, D-Arg^29]hGH-RH(1-29)NH2 [Peptide 24]",56 % of control,13 % of control,18 % of control,34 % of control,60 % of control,–,–,–,–,–,–
